Drawing on patent publication US20020016351A1, “New crystals of celecoxib” (priority 2000, published 2002), this text covers bulk density and tap density for two compounds.

The nature of data set [1]: bulk density of the crystals. It is filed as physicochemical. The conditions noted are these: typical and characteristic density of the celecoxib crystals. From the text: (§1) One of the main disadvantages of the needle-like crystals of Form II mentioned in WO 00/32189 is their low bulk density. It was found, that the crystals of the invention's Form I are distinctly denser in comparison to the crystals of Form II prepared according to the methods as given in International Applications WO 95/15316 and WO 96/37476. The following densities are typical and characteristic for the crystals of Form I and II, respectively: […]

The nature of data set [2]: tap density of the crystals. The data set is classed as physicochemical. The conditions noted are these: typical and characteristic density of the celecoxib crystals.
Description: as §1

On to `Cc1ccc(-c2cc(C(F)(F)F)nn2-c2ccc(S(N)(=O)=O)cc2)cc1` [Form I, 4-[5-(4-methylphenyl)-3-(trifluoromethyl)-1H-pyrazol-1-yl]benzenesulfonamide], for which the bulk density result in data set [1] is listed as “≧about 0.270 g/ml”. In addition, the tap density entry in data set [2] is recorded as “≧about 0.360 g/ml”.

Turning to `Cc1ccc(-c2cc(C(F)(F)F)nn2-c2ccc(S(N)(=O)=O)cc2)cc1` [Form II, 4-[5-(4-methylphenyl)-3-(trifluoromethyl)-1H-pyrazol-1-yl]benzenesulfonamide], in data set [1], the bulk density entry is reported as “about 0.130 g/ml”. Also, the tap density result in data set [2] was “about 0.180 g/ml”.
